Assay in all cases: KinomeScan kinase panel, single concentration 10 µM
Common to all, as to assay type: binding

Test [1] has as its target T1, KinomeScan kinase panel (Homo sapiens, UniProt P08069).
T1 construct: purchased DiscoveRx (KinomeScan)
The note with it: IGF1R, 10 µM; read-out: score (%).

Test [2] addresses T2, KinomeScan kinase panel (Homo sapiens, UniProt P00519, E255K).
T2 construct: purchased DiscoveRx (KinomeScan)
The note with it: 10 µM, read-out: score (%).

Test [3] concerns the target T3, KinomeScan kinase panel (Homo sapiens, UniProt P00519).
T3 construct: purchased DiscoveRx (KinomeScan)
The note with it: read-out: score (%).

For test [4], the target named is T4, KinomeScan kinase panel (Homo sapiens, UniProt Q9BZL6).
T4 construct: purchased DiscoveRx (KinomeScan)
T4 sequence (Q9BZL6 1-878): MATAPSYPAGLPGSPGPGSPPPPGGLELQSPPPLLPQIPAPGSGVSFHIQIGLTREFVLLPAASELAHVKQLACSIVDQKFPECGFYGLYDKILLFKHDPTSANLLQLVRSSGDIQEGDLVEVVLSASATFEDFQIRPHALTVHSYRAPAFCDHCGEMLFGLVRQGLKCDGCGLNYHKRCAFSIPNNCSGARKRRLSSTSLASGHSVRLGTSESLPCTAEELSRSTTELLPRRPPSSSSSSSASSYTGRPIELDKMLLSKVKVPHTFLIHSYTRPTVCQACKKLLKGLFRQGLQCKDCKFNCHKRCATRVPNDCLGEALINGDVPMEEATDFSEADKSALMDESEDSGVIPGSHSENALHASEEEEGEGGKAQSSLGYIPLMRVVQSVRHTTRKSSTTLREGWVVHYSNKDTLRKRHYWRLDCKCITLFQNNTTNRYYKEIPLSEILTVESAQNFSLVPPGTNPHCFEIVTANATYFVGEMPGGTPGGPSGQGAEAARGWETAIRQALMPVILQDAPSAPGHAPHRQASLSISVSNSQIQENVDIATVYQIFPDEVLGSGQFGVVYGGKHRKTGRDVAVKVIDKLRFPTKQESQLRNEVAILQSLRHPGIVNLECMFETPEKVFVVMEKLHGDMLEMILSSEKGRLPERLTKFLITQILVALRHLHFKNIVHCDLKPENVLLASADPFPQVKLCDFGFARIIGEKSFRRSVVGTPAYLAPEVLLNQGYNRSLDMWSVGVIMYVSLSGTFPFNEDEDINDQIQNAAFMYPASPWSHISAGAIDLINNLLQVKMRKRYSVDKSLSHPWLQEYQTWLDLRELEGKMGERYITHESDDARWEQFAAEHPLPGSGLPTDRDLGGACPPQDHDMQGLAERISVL
The note with it: read-out: score (%).

Test [5] addresses T5, KinomeScan kinase panel (Homo sapiens, UniProt P11362).
T5 construct: purchased DiscoveRx (KinomeScan)
The note with it: FGFR1, 10 µM; read-out: score (%).

Test [6] has as its target T6, KinomeScan kinase panel (Homo sapiens, UniProt Q8IU85).
T6 construct: purchased DiscoveRx (KinomeScan)
The note with it: CAMK1D, 10 µM; read-out: score (%).

In test [7] the target is T7, KinomeScan kinase panel (Homo sapiens, UniProt P51812).
T7 construct: purchased DiscoveRx (KinomeScan)
The note with it: 10 µM, read-out: score (%).

For test [8], the target named is T8, KinomeScan kinase panel (Homo sapiens, UniProt P15056).
T8 construct: purchased DiscoveRx (KinomeScan)
The note with it: BRAF, 10 µM; read-out: score (%).

Test [9] deals with T9, KinomeScan kinase panel (Homo sapiens, UniProt P10721, V559D).
T9 construct: purchased DiscoveRx (KinomeScan)
The note with it: KIT(V559D), 10 µM; read-out: score (%).

For test [10], the target named is T10, KinomeScan kinase panel (Homo sapiens, UniProt Q9H2G2).
T10 construct: purchased DiscoveRx (KinomeScan)
The note with it: 10 µM, read-out: score (%).

In test [11] the target is T11, KinomeScan kinase panel (Homo sapiens, UniProt Q13131).
T11 construct: purchased DiscoveRx (KinomeScan)
The note with it: AMPK-alpha1, 10 µM; read-out: score (%).

The target in test [12] is T12, KinomeScan kinase panel (Homo sapiens, UniProt Q13546).
T12 construct: purchased DiscoveRx (KinomeScan)
T12 sequence (Q13546 1-671): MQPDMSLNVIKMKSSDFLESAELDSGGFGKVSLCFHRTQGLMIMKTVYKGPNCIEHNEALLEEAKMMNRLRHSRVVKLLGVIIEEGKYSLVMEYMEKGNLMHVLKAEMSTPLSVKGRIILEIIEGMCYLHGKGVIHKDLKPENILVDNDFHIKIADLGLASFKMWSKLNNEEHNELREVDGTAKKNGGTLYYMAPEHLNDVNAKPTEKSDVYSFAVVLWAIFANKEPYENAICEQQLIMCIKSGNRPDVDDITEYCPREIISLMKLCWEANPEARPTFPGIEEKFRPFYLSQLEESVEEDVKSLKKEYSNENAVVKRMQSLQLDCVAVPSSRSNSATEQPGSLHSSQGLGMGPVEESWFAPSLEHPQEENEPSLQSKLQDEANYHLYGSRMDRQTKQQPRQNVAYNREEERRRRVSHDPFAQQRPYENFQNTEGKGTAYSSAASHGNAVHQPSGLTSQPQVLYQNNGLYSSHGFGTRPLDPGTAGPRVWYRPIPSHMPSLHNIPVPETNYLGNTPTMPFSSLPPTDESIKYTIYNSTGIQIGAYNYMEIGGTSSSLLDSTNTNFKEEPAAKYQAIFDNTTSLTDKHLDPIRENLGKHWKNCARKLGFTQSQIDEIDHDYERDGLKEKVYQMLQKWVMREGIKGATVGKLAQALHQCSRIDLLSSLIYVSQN
The note with it: read-out: score (%).

Structures are written as SMILES. Read-outs that look alike come from different tables or passages of the source.

T10 sequence (Q9H2G2 whole entry): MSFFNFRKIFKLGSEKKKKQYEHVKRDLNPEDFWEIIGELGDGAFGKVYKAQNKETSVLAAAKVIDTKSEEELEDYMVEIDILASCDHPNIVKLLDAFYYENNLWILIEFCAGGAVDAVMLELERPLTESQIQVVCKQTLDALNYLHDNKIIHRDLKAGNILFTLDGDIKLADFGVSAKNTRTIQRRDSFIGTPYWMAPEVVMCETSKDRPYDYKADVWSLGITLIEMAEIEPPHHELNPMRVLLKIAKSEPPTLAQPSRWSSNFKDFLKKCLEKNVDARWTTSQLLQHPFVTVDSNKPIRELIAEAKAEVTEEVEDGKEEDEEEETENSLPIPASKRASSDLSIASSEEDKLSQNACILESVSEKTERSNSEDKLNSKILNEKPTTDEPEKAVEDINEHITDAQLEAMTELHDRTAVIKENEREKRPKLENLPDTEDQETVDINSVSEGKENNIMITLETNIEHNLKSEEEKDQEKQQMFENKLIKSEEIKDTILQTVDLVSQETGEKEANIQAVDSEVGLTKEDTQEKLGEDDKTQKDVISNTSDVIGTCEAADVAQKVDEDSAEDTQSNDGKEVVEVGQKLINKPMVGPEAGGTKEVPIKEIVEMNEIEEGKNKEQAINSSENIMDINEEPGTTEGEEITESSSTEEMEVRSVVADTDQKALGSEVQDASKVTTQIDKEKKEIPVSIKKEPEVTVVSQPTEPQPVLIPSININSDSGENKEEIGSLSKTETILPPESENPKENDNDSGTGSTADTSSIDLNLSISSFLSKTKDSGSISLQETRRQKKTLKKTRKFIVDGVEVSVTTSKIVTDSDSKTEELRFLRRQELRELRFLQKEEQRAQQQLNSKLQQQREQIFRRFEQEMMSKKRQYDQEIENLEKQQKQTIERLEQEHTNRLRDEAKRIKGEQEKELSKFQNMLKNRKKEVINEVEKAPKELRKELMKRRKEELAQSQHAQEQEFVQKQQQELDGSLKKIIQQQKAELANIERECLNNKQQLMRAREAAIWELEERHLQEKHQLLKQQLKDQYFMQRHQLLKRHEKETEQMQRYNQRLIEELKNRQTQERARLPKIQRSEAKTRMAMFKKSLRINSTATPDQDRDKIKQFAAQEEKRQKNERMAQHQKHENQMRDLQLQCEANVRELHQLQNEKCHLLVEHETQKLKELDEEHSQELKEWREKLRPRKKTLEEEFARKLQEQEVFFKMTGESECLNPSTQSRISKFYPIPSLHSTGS
T9 sequence (P10721 26-976 V559D): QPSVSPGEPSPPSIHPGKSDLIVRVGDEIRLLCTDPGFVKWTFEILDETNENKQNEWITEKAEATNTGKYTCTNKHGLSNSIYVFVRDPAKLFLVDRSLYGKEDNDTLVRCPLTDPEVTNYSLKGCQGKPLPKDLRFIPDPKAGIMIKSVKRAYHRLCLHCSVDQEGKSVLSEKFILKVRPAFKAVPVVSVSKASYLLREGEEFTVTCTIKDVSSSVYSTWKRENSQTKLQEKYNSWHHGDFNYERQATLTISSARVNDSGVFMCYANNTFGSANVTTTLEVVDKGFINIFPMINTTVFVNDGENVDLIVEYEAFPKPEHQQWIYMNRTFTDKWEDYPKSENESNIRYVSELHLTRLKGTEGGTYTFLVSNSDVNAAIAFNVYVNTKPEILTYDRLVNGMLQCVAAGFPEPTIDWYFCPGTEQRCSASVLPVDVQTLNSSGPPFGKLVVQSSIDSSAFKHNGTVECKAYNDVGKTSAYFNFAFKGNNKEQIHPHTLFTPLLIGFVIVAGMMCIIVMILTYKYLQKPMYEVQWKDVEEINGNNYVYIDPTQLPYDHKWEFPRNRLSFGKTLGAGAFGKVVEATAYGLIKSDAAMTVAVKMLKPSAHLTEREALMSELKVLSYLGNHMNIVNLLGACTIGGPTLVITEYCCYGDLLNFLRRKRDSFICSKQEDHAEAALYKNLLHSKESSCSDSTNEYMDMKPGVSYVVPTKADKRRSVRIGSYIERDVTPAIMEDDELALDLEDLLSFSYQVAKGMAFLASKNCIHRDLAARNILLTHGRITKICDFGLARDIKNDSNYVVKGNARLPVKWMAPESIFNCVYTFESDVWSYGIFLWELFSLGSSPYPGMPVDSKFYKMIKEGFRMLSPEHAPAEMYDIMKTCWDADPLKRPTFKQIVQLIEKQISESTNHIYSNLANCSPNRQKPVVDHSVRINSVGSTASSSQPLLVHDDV
T1 sequence (P08069 31-1367): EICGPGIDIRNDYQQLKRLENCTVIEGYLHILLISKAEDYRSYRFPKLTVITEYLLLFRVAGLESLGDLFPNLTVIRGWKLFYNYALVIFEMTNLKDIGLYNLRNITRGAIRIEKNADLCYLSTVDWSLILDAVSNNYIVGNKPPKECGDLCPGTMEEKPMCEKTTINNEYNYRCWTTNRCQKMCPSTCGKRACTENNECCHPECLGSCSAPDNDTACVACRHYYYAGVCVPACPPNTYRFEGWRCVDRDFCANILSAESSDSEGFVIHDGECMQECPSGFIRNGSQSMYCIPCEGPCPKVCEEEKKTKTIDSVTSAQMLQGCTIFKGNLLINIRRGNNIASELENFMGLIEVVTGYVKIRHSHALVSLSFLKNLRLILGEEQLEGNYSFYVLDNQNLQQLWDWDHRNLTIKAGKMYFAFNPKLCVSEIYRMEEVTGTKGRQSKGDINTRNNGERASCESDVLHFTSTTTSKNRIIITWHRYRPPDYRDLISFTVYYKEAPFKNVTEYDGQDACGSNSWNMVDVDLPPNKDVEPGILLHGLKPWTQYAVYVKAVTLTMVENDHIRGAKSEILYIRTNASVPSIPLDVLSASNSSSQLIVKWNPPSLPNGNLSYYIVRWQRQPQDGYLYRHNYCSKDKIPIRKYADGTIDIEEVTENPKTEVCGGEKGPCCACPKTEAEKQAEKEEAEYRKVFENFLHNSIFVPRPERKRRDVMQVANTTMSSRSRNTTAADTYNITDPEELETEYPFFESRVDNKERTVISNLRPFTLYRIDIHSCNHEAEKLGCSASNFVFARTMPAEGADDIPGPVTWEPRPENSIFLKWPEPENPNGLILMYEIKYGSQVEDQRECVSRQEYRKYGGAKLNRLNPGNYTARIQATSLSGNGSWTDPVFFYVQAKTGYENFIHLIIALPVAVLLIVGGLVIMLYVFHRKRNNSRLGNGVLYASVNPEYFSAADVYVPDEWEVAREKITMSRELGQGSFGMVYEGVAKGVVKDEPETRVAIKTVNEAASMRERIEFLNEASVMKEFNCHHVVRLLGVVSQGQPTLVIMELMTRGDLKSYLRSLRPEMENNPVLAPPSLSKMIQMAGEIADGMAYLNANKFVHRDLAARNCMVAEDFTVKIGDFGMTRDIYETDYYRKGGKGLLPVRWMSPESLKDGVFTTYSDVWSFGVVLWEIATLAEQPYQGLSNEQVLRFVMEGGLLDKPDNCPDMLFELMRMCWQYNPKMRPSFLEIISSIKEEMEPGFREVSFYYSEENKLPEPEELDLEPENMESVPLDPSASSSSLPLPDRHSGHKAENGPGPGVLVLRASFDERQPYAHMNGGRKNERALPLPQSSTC
T11 sequence (Q13131 whole entry): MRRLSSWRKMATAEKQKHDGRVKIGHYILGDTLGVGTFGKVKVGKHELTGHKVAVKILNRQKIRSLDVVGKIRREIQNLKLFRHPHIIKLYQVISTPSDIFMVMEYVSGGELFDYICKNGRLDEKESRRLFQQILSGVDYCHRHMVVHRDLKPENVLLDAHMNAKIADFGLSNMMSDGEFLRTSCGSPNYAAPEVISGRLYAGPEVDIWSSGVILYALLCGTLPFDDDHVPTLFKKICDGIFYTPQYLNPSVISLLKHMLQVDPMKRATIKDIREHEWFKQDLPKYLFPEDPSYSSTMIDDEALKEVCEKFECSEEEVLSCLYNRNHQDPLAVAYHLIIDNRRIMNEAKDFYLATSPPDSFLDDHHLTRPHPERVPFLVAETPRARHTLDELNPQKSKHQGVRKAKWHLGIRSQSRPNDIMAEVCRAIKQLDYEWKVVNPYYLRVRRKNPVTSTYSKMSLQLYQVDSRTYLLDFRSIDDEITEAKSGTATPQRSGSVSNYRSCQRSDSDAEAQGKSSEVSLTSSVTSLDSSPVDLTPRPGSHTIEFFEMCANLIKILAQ
T8 sequence (P15056 whole entry): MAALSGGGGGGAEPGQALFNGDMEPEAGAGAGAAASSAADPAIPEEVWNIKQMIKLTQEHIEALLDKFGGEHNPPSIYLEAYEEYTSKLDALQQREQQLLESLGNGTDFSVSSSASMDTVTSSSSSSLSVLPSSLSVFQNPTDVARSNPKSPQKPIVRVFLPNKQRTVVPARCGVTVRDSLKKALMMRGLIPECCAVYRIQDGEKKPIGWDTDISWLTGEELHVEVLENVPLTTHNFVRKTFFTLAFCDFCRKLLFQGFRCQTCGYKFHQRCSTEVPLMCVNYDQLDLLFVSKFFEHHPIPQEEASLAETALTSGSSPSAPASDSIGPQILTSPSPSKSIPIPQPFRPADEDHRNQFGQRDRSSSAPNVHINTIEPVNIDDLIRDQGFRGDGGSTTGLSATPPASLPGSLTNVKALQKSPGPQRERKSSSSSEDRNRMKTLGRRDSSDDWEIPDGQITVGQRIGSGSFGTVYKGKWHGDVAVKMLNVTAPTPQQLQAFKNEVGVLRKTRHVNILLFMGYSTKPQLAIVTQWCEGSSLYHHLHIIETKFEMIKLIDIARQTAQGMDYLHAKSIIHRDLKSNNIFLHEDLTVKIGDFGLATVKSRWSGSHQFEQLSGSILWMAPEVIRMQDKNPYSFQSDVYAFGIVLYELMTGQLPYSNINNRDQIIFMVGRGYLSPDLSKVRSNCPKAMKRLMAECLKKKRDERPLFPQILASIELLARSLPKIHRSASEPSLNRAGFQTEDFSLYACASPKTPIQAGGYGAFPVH

As for `CCN1CCN(Cc2ccc(NC(=O)c3ccc(C)c(NC(=O)c4cncc(-c5cccs5)c4)c3)cc2C(F)(F)F)CC1` [ALW-II-41-27], the remaining binding at 10 µM was more than 30% in test [1]; 7.2% in test [2] (ABL1(E255K)); 0.05% in test [3] (ABL1, 10 µM); more than 30% in [4] (PRKD2, 10 µM); 2.2% in [5]; more than 30% in [6]. Moreover, the remaining binding at 10 µM was more than 30% in [7] (kinase RPS6KA3(Kin.Dom.1-N-terminal)); 1.8% in test [8]; 0.1% in test [9]; 5% in test [10] (kinase SLK); more than 30% in test [11]; 0.45% in test [12] (RIPK1, 10 µM).

On to `CCN1CCN(Cc2ccc(NC(=O)c3ccc(C)c(/C=C/c4cnc5[nH]ccc5c4Cl)c3)cc2C(F)(F)F)CC1` [HG-6-63-01, (E)-3-(2-(4-chloro-1H-pyrrolo[2,3-b]pyridin-5-yl)vinyl)-N-(4-((4-ethylpiperazin-1-yl)methyl)-3-(trifluoromethyl)phenyl)-4-methylbenzamide], for which the remaining binding at 10 µM in test [1] was more than 30%; in test [2] (ABL1(E255K)), 1.3%; in test [3] (ABL1, 10 µM) it was 0.3%; in test [4] (PRKD2, 10 µM), 32%; in [5] it was 0.7%; in test [6], more than 30%. Moreover, the remaining binding at 10 µM in test [7] (RPS6KA3(Kin.Dom.1)) was more than 30%; in [8], 1.2%; in [9], 0%; in test [10] (SLK), 0.85%; in test [11], 18%; in [12] (RIPK1, 10 µM) it was 0.05%.

For the molecule `CCN1CCN(Cc2ccc(NC(=O)c3ccc(C)c(C#Cc4cccnc4)c3)cc2C(F)(F)F)CC1` [XMD15-44], the remaining binding at 10 µM in [1] was more than 30%; in [2] (ABL1(E255K)-phosphorylated) it was 0.05%; in [3] (ABL1-nonphosphorylated, 10 µM) it was 0%; in test [3] (ABL1-phosphorylated, 10 µM), 0%; in [4] (kinase PRKD2, 10 µM), 56%; in test [5], 0.25%. Besides, the remaining binding at 10 µM in [6] was more than 30%; in test [7] (kinase RSK2(Kin.Dom.1-N-terminal)) it was 16%; in test [8], 0.05%; in test [9], 0%; in test [10] (kinase SLK), 0.1%; in test [11], 1.2%. Also, in [12] (kinase RIPK1, 10 µM), the remaining binding at 10 µM is 0.05%.

These data come from publication PMC4457528, “Identification of Novel Small Molecule Inhibitors of Oncogenic RET Kinase” (PLoS ONE, 2015).
